Experimental data: PMC8185074, “Anchor extension: a structure-guided approach to design cyclic peptides targeting enzyme active sites” (Nature Communications, 2021)
“Also recorded” adds a separate entry of the source.

Key:
Assay type in all cases: biochemical
[1] = target: T1, HDAC4 (Homo sapiens, UniProt P56524); test: HDAC4 inhibition/binding test (BPS Biosciences HDAC fluorogenic assay kit)
T1 construct: purchased BPS Biosciences

[2] = target: HDAC5 (Homo sapiens, UniProt Q9UQL6); test: HDAC5 profiling of SHA anchor and early peptides
[3] = target: T2, HDAC7 (Homo sapiens, UniProt Q8WUI4); test: HDAC7 profiling of SHA anchor and early peptides
T2 sequence (Q8WUI4 1-952): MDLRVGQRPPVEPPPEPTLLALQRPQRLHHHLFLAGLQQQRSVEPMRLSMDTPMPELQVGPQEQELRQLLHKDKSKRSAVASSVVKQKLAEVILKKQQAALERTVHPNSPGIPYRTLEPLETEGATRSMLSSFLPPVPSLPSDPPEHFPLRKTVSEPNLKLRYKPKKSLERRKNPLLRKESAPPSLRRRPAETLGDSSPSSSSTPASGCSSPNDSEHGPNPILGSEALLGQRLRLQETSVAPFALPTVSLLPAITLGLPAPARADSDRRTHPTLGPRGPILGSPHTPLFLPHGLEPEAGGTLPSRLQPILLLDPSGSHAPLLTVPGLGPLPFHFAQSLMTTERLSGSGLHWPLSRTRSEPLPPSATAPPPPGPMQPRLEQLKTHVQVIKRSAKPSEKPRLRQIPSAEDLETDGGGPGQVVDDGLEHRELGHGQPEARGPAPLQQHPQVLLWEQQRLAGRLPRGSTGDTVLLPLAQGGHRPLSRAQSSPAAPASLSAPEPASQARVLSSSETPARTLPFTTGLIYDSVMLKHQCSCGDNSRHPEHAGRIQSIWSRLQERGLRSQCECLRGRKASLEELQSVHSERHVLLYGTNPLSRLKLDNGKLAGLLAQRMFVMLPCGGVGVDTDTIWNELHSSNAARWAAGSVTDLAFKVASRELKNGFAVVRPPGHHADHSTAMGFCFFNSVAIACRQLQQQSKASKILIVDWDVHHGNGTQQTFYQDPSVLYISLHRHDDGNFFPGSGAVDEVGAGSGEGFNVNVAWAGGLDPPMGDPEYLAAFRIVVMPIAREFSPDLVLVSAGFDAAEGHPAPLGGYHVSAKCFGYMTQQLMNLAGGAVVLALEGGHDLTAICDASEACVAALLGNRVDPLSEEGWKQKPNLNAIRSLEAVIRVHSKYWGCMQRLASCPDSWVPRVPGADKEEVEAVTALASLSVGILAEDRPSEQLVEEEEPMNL

[4] = target: HDAC9 (Homo sapiens, UniProt Q9UKV0); test: HDAC9 profiling of SHA anchor and early peptides
[5] = target: T3, HDAC10 (Homo sapiens, UniProt Q969S8); test: HDAC10 profiling of SHA anchor
T3 sequence (Q969S8 1-669): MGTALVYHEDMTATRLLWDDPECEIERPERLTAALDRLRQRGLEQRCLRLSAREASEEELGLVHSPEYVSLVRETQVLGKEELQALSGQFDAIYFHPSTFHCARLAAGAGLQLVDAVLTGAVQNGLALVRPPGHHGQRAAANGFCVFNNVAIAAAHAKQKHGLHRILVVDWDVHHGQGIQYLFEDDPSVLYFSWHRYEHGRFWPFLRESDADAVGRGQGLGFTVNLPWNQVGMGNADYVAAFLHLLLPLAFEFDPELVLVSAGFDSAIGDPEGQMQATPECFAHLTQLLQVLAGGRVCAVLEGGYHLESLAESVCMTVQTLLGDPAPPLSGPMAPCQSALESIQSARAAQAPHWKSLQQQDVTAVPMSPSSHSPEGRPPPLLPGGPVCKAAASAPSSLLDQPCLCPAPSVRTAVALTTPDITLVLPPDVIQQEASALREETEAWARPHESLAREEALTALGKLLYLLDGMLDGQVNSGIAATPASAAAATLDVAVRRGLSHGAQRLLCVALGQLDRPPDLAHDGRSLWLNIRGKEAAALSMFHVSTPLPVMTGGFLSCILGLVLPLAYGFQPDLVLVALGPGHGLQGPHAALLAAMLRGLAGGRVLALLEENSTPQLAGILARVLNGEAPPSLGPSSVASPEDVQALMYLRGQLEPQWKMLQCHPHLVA
Description: Supplement 41467_2021_23609_MOESM7_ESM.zip/HDACActivity_RawData.xlsx, sheet "SHA" | column: HDAC10

HDAC9, sequence (Q9UKV0 whole entry): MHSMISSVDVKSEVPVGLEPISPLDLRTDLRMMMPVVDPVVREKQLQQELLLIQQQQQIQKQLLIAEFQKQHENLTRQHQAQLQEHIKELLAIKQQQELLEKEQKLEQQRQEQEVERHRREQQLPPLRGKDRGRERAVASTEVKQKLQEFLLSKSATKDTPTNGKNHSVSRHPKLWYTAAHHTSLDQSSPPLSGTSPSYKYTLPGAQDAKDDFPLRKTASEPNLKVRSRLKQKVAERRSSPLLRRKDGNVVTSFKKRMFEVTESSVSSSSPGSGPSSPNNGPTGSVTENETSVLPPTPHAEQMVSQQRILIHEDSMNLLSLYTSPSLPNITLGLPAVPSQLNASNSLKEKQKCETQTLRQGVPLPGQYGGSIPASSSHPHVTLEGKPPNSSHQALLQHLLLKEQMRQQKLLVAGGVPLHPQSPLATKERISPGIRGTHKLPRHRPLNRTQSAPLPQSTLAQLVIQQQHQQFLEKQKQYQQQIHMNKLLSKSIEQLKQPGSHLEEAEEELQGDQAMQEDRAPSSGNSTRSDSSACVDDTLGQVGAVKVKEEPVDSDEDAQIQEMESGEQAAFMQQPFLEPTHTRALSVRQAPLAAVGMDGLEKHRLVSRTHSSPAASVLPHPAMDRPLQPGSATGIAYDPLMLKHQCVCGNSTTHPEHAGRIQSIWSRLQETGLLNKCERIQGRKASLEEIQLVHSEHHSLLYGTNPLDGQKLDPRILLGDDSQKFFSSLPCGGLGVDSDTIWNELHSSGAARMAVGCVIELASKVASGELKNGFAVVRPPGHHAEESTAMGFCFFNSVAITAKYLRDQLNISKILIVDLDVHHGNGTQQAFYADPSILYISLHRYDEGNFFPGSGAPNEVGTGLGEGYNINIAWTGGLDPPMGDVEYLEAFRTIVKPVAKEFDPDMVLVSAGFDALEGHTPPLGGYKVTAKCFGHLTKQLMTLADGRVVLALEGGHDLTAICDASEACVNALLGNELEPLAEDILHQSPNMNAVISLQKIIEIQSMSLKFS
T1 sequence (P56524 whole entry): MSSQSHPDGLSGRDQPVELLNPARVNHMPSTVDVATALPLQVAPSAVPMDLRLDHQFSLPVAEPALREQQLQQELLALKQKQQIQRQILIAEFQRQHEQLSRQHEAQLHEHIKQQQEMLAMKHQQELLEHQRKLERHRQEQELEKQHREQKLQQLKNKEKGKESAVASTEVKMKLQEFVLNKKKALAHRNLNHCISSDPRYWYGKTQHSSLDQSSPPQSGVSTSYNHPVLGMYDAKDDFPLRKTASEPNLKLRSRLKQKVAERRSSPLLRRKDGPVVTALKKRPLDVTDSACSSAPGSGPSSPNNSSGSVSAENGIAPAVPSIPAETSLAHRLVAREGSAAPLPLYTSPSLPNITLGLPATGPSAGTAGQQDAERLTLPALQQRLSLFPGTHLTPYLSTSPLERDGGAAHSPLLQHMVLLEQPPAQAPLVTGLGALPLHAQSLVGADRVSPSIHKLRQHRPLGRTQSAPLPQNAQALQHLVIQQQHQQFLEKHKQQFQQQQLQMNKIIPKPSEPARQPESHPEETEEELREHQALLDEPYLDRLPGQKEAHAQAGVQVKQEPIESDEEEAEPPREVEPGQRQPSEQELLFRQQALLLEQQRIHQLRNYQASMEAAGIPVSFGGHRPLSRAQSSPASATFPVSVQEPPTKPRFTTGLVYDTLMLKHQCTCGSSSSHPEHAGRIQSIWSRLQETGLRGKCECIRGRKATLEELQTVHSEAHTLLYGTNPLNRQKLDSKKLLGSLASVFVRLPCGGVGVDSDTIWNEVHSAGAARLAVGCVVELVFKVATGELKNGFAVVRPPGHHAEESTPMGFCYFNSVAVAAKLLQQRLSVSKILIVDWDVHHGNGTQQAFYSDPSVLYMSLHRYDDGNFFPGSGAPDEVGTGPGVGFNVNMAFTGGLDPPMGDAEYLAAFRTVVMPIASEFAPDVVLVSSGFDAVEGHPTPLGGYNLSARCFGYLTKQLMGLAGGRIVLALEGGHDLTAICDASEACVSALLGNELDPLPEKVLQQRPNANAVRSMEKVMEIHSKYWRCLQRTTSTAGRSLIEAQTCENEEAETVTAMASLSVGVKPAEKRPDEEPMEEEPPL
HDAC5, sequence (Q9UQL6 whole entry): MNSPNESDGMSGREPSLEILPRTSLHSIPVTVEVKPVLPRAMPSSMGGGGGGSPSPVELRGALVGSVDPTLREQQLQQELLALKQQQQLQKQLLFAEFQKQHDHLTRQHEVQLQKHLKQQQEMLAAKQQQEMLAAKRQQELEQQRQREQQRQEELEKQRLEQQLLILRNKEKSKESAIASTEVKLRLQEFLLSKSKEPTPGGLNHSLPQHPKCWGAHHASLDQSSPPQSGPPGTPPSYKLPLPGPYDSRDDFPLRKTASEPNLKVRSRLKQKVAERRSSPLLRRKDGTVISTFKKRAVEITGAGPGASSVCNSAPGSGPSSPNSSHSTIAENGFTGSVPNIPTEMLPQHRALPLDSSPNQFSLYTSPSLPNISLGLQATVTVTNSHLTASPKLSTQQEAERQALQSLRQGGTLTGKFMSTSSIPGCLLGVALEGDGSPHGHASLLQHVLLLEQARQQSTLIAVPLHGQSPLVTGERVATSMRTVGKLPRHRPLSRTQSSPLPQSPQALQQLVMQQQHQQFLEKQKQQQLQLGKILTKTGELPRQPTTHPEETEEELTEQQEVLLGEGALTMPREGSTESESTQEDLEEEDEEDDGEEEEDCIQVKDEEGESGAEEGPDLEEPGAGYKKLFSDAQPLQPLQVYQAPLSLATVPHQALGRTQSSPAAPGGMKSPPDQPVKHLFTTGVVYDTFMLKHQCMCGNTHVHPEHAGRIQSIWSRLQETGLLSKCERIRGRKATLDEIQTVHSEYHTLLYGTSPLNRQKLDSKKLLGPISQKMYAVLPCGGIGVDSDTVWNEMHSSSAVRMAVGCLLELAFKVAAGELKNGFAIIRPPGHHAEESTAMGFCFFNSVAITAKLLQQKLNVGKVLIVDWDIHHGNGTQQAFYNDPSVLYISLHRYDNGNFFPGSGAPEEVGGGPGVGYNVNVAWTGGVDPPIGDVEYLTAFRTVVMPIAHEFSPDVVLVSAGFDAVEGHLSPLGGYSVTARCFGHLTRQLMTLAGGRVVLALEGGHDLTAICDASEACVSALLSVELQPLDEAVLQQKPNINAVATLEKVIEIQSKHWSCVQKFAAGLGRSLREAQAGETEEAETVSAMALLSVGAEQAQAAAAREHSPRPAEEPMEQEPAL

binding to HDAC4 [1]: not detected binding
HDAC4 raw activity signal ([1]; Conc. 1.00E-05 M): 1818034
HDAC4 raw activity signal ([1]; Conc. 1.11E-06 M): 1589038
HDAC4 raw activity signal ([1]; Conc. 1.23E-07 M): 1682923
HDAC4 raw activity signal ([1]; Conc. 1.37E-08 M): 1569641
HDAC4 raw activity signal ([1]; Conc. 1.52E-09 M): 1604062
HDAC4 raw activity signal ([1]; Conc. 3.33E-06 M): 1651123
HDAC4 raw activity signal ([1]; Conc. 3.70E-07 M): 1661788
HDAC4 raw activity signal ([1]; Conc. 4.12E-08 M): 1863011
HDAC4 raw activity signal ([1]; Conc. 4.57E-09 M): 1554862
HDAC4 raw activity signal ([1]; Conc. 5.08E-10 M): 1555289
HDAC5 raw activity signal ([2]; Conc. 1.00E-05 M): 673421
HDAC5 raw activity signal ([2]; Conc. 1.11E-06 M): 815210
HDAC5 raw activity signal ([2]; Conc. 1.23E-07 M): 790981
HDAC5 raw activity signal ([2]; Conc. 1.37E-08 M): 671078
HDAC5 raw activity signal ([2]; Conc. 1.52E-09 M): 600695
HDAC5 raw activity signal ([2]; Conc. 3.33E-06 M): 650638
HDAC5 raw activity signal ([2]; Conc. 3.70E-07 M): 757112
HDAC5 raw activity signal ([2]; Conc. 4.12E-08 M): 716396
HDAC5 raw activity signal ([2]; Conc. 4.57E-09 M): 610467
HDAC5 raw activity signal ([2]; Conc. 5.08E-10 M): 252249
HDAC7 raw activity signal ([3]; Conc. 1.00E-05 M): 490633
HDAC7 raw activity signal ([3]; Conc. 1.11E-06 M): 609377
HDAC7 raw activity signal ([3]; Conc. 1.23E-07 M): 577915
HDAC7 raw activity signal ([3]; Conc. 1.37E-08 M): 439997
HDAC7 raw activity signal ([3]; Conc. 1.52E-09 M): 431089
HDAC7 raw activity signal ([3]; Conc. 3.33E-06 M): 551905
HDAC7 raw activity signal ([3]; Conc. 3.70E-07 M): 580293
HDAC7 raw activity signal ([3]; Conc. 4.12E-08 M): 536345
HDAC7 raw activity signal ([3]; Conc. 4.57E-09 M): 413084
HDAC7 raw activity signal ([3]; Conc. 5.08E-10 M): 366480
HDAC9 raw activity signal ([4]; Conc. 1.00E-05 M): 866095
HDAC9 raw activity signal ([4]; Conc. 1.11E-06 M): 1324190
HDAC9 raw activity signal ([4]; Conc. 1.23E-07 M): 1424055
HDAC9 raw activity signal ([4]; Conc. 1.37E-08 M): 1252931
HDAC9 raw activity signal ([4]; Conc. 1.52E-09 M): 1327312
HDAC9 raw activity signal ([4]; Conc. 3.33E-06 M): 1253108
HDAC9 raw activity signal ([4]; Conc. 3.70E-07 M): 1495255
HDAC9 raw activity signal ([4]; Conc. 4.12E-08 M): 1362638
HDAC9 raw activity signal ([4]; Conc. 4.57E-09 M): 1400560
HDAC9 raw activity signal ([4]; Conc. 5.08E-10 M): 1258385
HDAC10 raw activity signal ([5]; Conc. 1.00E-05 M): 78535
HDAC10 raw activity signal ([5]; Conc. 1.11E-06 M): 200617
HDAC10 raw activity signal ([5]; Conc. 1.23E-07 M): 227566
HDAC10 raw activity signal ([5]; Conc. 1.37E-08 M): 231393
HDAC10 raw activity signal ([5]; Conc. 1.52E-09 M): 230961
HDAC10 raw activity signal ([5]; Conc. 3.33E-06 M): 158362
HDAC10 raw activity signal ([5]; Conc. 3.70E-07 M): 217828
HDAC10 raw activity signal ([5]; Conc. 4.12E-08 M): 237632
HDAC10 raw activity signal ([5]; Conc. 4.57E-09 M): 278288
HDAC10 raw activity signal ([5]; Conc. 5.08E-10 M): 236379
SMILES: N[C@@H](CCCCCS)C(=O)O [SHA, 2S-2-amino-7-sulfanylheptanoic acid]
binding to HDAC5 [2]: not detected binding; also recorded: no binding
binding to HDAC7 [3]: not detected binding; also recorded: no binding
binding to HDAC9 [4]: not detected binding; also recorded: no binding
